Test results published in patent publication US6552073B1, “Compounds and methods of treating cell proliferative diseases” (Exonhit Therapeutics SA, priority 2002, dated 2003).
“Also recorded” adds a separate entry of the source.

Columns and labels:
[1] = test system: MDA-MB-231 cells; assay: Matrigel invasion assay (Boyden chamber); assay type: cell-based, human; conditions: MDA-MB-231 cells
Procedure: d) Migration and Matrigel Invasion Assay
Chemoinvasion assay was performed in Boyden chamber as described by Albini et al (Cancer Res, 1987) with some modifications. Polycarbonate membranes with 8μm pores were coated with matrigel (125 μg/cm^2) at room temperature for 48 h. Two hours before experiments, the matrix was […] with serum-free medium containing 0.1% BSA.
One day after seeding, 10^6 MDA-MB-231 cells were treated overnight with different concentrations of compounds (1, 10, 17.5, 25 and 50 μM). Cells were collected with Versene (Invitrogen), counted with trypan blue exclusion, rinsed twice in serum-free medium containing 0.1% BSA and resuspended in serum-free medium containing 0.1% BSA plus the appropriate concentration of compound. 10^5 treated cells were placed in the upper chamber. Medium containing 10% of FBS plus the appropriate concentration of compound was placed in the lower chamber as a chemoattractant. The Boyden chamber was incubated 6 hours at 37° C. before the cells were fixed and stained with Diff-Quick (Dade-Berhing). Cells on the upper part of the filters were removed using a cotton swab. Cells on the underside of the filters were visualised and counted under light microscope. The migration assay was performed the same way, using non-coated filters.

[2] = test system: NIH3T3 cells transfected with RasV12; assay: Colony formation assay in the presence of constitutively activated Ras (RasV12); assay type: cell-based, mouse; parameters: key to Colony formation: −: no effect of the compound was observed; +: an effect of the compound was observed; conditions: for Ras-dependent neoR clones formation: NIH3T3, RasV12; for Colony formation: NIH3T3, neoR colonies
Procedure: c) Ras/Rac-dependant Signaling Pathway Analysis
The impact of the compounds on Ras and Rac signaling pathways was analysed with two reporter systems described by Imler (Nature 1988) and Lin (Science, 1995) respectively on one hand, and by a colony formation assay in the presence of constitutively activated Ras (RasV12) and Rac (RacV12) on the other hand. For this latter experiment, fifty percent confluent NIH3T3 cells in a 10 cm diameter petri dish were transfected with 0.5 μg pSV2-RasV12 or 0.5 μg pEXV RacV12 plasmids plus 100 ng of pSV2-neomycin plasmid using Lipofectamine-Plus reagent (Invitrogen) according to the manufacturer's instructions. Forty-eight hours later, cells were trypsinised, splitted to 1/3, and incubated in the presence of complete medium supplemented with 400 μg/ml geneticin (Invitrogen) and different doses of compound (1, 10, 17.5, 25 and 50 μM) until emerging resistant clones appear (2-3 weeks). The medium was renewed every 3 days. Colonies with a minimum of 50 cells were counted after staining with Fuschin 2%.

[3] = test system: NIH3T3; assay: Cytoskeleton analysis, actin staining; assay type: cell-based, mouse; parameters: key to Cell architecture modification, actin staining NIH3T3, ruffles (R) / Cell architecture modification, actin staining NIH3T3, focal complexes (FC): a decrease in cellular ruffles density was noted R−; an increase in focal complexes density was noted FC+
Procedure: (§1) Since major rearrangements of cytoskeleton are observed in tumor cells and since the small GTPases are known to regulate these events, analysis of actin cytoskeleton was performed. Subconfluent cells seeded onto coverslips were treated with different concentration of compound (1, 10, 17.5, 25 and 50 μM) or vehicle for 24 h, before being fixed in 4% formaldehyde for 15 min., permeabilized in 0.2% Triton X100 for 5 minutes and incubated in PowerBlock (Biogenex) for 10 min. Actin filaments were stained with 0.5 μg/ml fluorescein isothiocyanate (FITC)-labelled phalloidin for 1 hour. Analysis was performed using an inverted fluorescent microscope.

[4] = test system: H460; assay: Cytoskeleton analysis, actin staining; assay type: cell-based, human
Procedure: as §1

[5] = test system: HCT116; assay: Cytoskeleton analysis, actin staining; assay type: cell-based, human
Procedure: as §1

[6] = test system: MMP-2; assay: Gelatin zymography; assay type: cell-based, human; conditions: zymogram gel, MDA-MB-231 supernatant
Procedure: (§2) The activity of the metalloproteases MMP-2 and MMP-9 was assayed using gelatinolytic zymography according to Lambert (Surgery 1997). Briefly, MDA-MB-231 cells were incubated overnight in serum-free medium supplemented with ITS liquid supplement (Sigma) with different concentrations of compound (1, 10, 17.5, 25 and 50 μM). Supematant was collected and concentrated with Ultrafree 30 kDA (Millipore). Equal amount of proteins, as determined by Bradford measurement, were loaded onto a 10% w/v polyacrylamide gel containing 1% gelatin and 0.1% SDS (Novex). After electrophoresis, gels were washed in Novex Zymogram Renaturing buffer for 30 min at room temperature and incubated overnight at 37° C. in Novex Zymogram developing buffer. Gels were stained in Coomassie Brilliant Blue G-250, and the gelatinolytic activity was visualized as a clear band against the blue background of the stained gelatin.

[7] = test system: MMP-9; assay: Gelatin zymography; assay type: cell-based, human; conditions: zymogram gel, MDA-MB-231 supernatant
Procedure: as §2

[8] = test system: MDA231; assay: Cytoskeleton analysis, actin staining; assay type: cell-based, human
Procedure: as §1

| Compound | concentration at which an increase in invasive properties was noted [1] | Ras-dependent neoR clones formation [2] | Colony formation [2] | Cell architecture modification, actin staining NIH3T3, focal complexes (FC) [3] | Cell architecture modification, actin staining NIH3T3, ruffles (R) [3] | Cell architecture modification, actin staining H460, general observation [4] | Cell architecture modification, actin staining HCT116, general observation [5] | concentration of dose-dependant inhibition of MMP-2 [6] | concentration of dose-dependant inhibition of MMP-9 [7] | melting point | Cell architecture modification, actin staining MDA231, general observation [8] |
| --- | --- | --- | --- | --- | --- | --- | --- | --- | --- | --- | --- |
| CCCc1ccccc1OCCCCCOc1coc(CO)cc1=O [EH18900, 5-[5-(2-Propylphenyloxy)pentyloxy]-2-(hydroxymethyl)-4H-pyran-4-one] | 50 µM | inhibited | + | FC+ | R− | cell spreading | cell spreading |  |  |  |  |
| C/C=C/c1oc(CO)cc(=O)c1OCCCCCOc1ccc(Cl)c(Cl)c1CCC [EH31101, (E)-3-[5-(3,4-Dichloro-2-propylphenyoxy)pentyloxy]-6-(hydroxymethyl)-2-(propen-1-yl)-4H-pyran-4-one] | 10 µM |  | − | FC+ | R− |  |  | 0.1 µM | 0.1 µM | 75 to 76 °C |  |
| CCCc1c(OCCCCCOc2coc(CO)cc2=O)ccc(Cl)c1Cl [EH22900, 5-[5-(3,4-Dichloro-2-propylphenyloxy)pentyloxy]-2-(hydroxymethyl)-4H-pyran-4-one] |  | inhibited | + | FC+ | R− |  |  | 5 µM | 5 µM | 85 to 86 °C | increased MDA-MB-231 spreading; also recorded: cell spreading |
